Earlier results in patent publication US20240139272A1, “USE OF A SPEARMINT EXTRACT FOR RETINA NEUROTROPHISM” (KEMIN INDUSTRIES, INC., priority 2022, published 2024).
Where two headings read alike, the source gives them in different places.

Tested on: male Wistar rats
Details: for carrageenan-induced increase in paw volume (FIG. 1): 3 and 6 hours, spearmint extract at all doses, RA at the high dose (50 mg/kg), indomethacin 10 mg/kg

| SMILES | paw volume increase compared to baseline (10 mg/kg intraperitoneal, 3 hours post-injection of carrageenan) | paw volume increase compared to baseline (10 mg/kg intraperitoneal, 6 hours post-injection of carrageenan) | carrageenan-induced increase in paw volume (FIG. 1) | paw volume increase compared to baseline (15 mg/kg intraperitoneal, 3 hours) | paw volume increase compared to baseline (15 mg/kg intraperitoneal, 6 hours) | paw volume increase compared to baseline (50 mg/kg intraperitoneal, 3 hours) | paw volume increase compared to baseline (50 mg/kg intraperitoneal, 6 hours) |
| --- | --- | --- | --- | --- | --- | --- | --- |
| COc1ccc2c(c1)c(CC(=O)O)c(C)n2C(=O)c1ccc(Cl)cc1 [Indomethacin] | 6% | 3% | substantially attenuated |  |  |  |  |
| O=C(/C=C/c1ccc(O)c(O)c1)O[C@H](Cc1ccc(O)c(O)c1)C(=O)O [rosmarinic acid] |  |  | substantially attenuated | 20% | 10% | 7% | 5% |
